Experimental data as given in patent publication US7964531B2, “3-phenoxy-4-pyridazinol derivatives and herbicidal composition containing the same” (Mitsui Chemicals Agro, Inc., priority 2001, dated 2011).

Key:
Format in all cases: in vivo
[1] = system: indian mustard (Brassica juncea (L.) Czern. et Coss); test: Test Example 2: herbicidal effects (soil treatment); conditions: dosage 5 kg/a; soil treatment the day after seeding; judged after 21 days
Description: (§1) Judgment Standard • 0: Growth inhibition rate; 0 to 10% • 1: Growth inhibition rate; 11 to 30% • 2: Growth inhibition rate; 31 to 50% • 3: Growth inhibition rate; 51 to 70% • 4: Growth inhibition rate; 71 to 90% • 5: Growth inhibition rate; 91 to 100%.
(§2) Upland soil was filled in 150 cm^2 pot, and seeds of barnyardgrass and indian mustard (Brassica juncea (L.) Czern. et Coss) were sowed, and grown in a greenhouse. At the next day of seeding, a predetermined chemical dosage of the wettable powder prepared in accordance with Preparation example 1 was diluted in water and applied to soil surface. After 21 days from the treatment, herbicidal effects were judged in accordance with the judgment standard of Test example 1, and the results were shown in Table 3.

barnyardgrass = test: as above; conditions: dosage 5 kg/a; soil treatment the day after seeding; judged after 21 days
Description: as §1, §2

[2] = system: transplanted paddy-field rice; test: Test Example 1: crop injury against transplanted paddy-field rice; conditions: wettable powder applied 3 days after transplanting, judged after 25 days
Procedure, shortened: (§3)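 Paddy soil pots sown with dormancy-broken weed seeds mixed into the top 1 cm, plus germinated Cyperus serotinus tubers and transplanted 2.2-leaf rice seedlings, grown flooded in a greenhouse. Water-diluted wettable powder applied 3 days after transplanting; growth inhibition scored 25 days later on a 0–5 scale (0 = 0–10%, 5 = 91–100%).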

[3] = system: barnyardgrass (Echinochloa oryzicola Vasing.); test: Test Example 1: herbicidal effects, paddy-field pot test; conditions: wettable powder applied 3 days after transplanting, judged after 25 days
Procedure, shortened: as §3

Scirpus joncoides [4] = test: as above; conditions: wettable powder applied 3 days after transplanting, judged after 25 days
Procedure, shortened: as §3

Cyperus serotinus [5] = test: as above; conditions: wettable powder applied 3 days after transplanting, judged after 25 days
Procedure, shortened: as §3

[6] = system: annual broad-leaved weeds (Lindernia spp., Rotala indica); test: as above; conditions: wettable powder applied 3 days after transplanting, judged after 25 days
Procedure, shortened: as §3

Eleocharis kuroguwai = test: Test Example 4: herbicidal effects of mixed wettable powder, paddy-field pot test; conditions: no second compound, after 25 days
Procedure, shortened: (§4)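 Flooded greenhouse pots of paddy soil were sown in the top 1 cm with dormancy-broken weed seeds and planted with tubers, and 2.2-leaf rice was transplanted. Three days later, water-diluted wettable powder was applied at set dosages, and growth inhibition was rated 25 days after that on a 0 (0–15%) to 5 (96–100%) scale.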

[7] = system: annual broad-leaved weeds (Lindernia spp. and Rotala indica); test: as above; conditions: no second compound, after 25 days
Procedure, shortened: as §4

[8] = system: barnyardgrass (Echinochloa oryzicola Vasing.); test: as above; conditions: no second compound, after 25 days
Procedure, shortened: as §4

Scirpus joncoides [9] = test: as above; conditions: no second compound, after 25 days
Procedure, shortened: as §4

Sagittaria pygmaea = test: as above; conditions: no second compound, after 25 days
Procedure, shortened: as §4

Cyperus serotinus [10] = test: as above; conditions: no second compound, after 25 days
Procedure, shortened: as §4

[11] = system: transplanted paddy-field rice; test: Test Example 4: crop injury against transplanted paddy-field rice; conditions: no second compound, after 25 days
Procedure, shortened: as §4

Compound	Herbicidal effects indian mustard [1]	Herbicidal effects Barnyard-grass (barnyardgrass)	Crop injury against transplanted rice ([2]; chemical dosage 10 g/a)	Crop injury against transplanted rice ([2]; chemical dosage 20 g/a)	Herbicidal effects Barnyard grass ([3]; chemical dosage 10 g/a)	Herbicidal effects Barnyard grass ([3]; chemical dosage 20 g/a)	Herbicidal effects Scirpus joncoides (Scirpus joncoides [4]; chemical dosage 10 g/a)	Herbicidal effects Scirpus joncoides (Scirpus joncoides [4]; chemical dosage 20 g/a)	Herbicidal effects Cyperus serotinus (Cyperus serotinus [5]; chemical dosage 10 g/a)	Herbicidal effects Cyperus serotinus (Cyperus serotinus [5]; chemical dosage 20 g/a)	Herbicidal effects Broad leaf ([6]; chemical dosage 10 g/a)	Herbicidal effects Broad leaf ([6]; chemical dosage 20 g/a)	Herbicidal effects Eleocharis kuroguwai (Eleocharis kuroguwai; derivative 5 g/a)	Herbicidal effects Eleocharis kuroguwai (Eleocharis kuroguwai; derivative 10 g/a)	Herbicidal effects Broad leaf ([7]; derivative 5 g/a)	Herbicidal effects Broad leaf ([7]; derivative 10 g/a)	Herbicidal effects Barnyard grass ([8]; derivative 5 g/a)	Herbicidal effects Barnyard grass ([8]; derivative 10 g/a)	Herbicidal effects Scirpus joncoides (Scirpus joncoides [9]; derivative 5 g/a)	Herbicidal effects Scirpus joncoides (Scirpus joncoides [9]; derivative 10 g/a)	also measured
Cc1cccc(Br)c1Oc1nnc(Cl)cc1O [Example 249]	5 (Growth inhibition rate; 91 to 100%)	4 (Growth inhibition rate; 71 to 90%)	0 (Growth inhibition rate; 0 to 10%)	3 (Growth inhibition rate; 51 to 70%)	2 (Growth inhibition rate; 31 to 50%)	3 (Growth inhibition rate; 51 to 70%)	5 (Growth inhibition rate; 91 to 100%)	5 (Growth inhibition rate; 91 to 100%)	5 (Growth inhibition rate; 91 to 100%)	5 (Growth inhibition rate; 91 to 100%)	5 (Growth inhibition rate; 91 to 100%)	5 (Growth inhibition rate; 91 to 100%)	1 (Growth inhibition rate; 16 to 35%)	2 (Growth inhibition rate; 36 to 55%)	5 (Growth inhibition rate; 96 to 100%)	5 (Growth inhibition rate; 96 to 100%)	1 (Growth inhibition rate; 16 to 35%)	2 (Growth inhibition rate; 36 to 55%)	3 (Growth inhibition rate; 56 to 75%)	5 (Growth inhibition rate; 96 to 100%)	Herbicidal effects Sagittaria pygmaea (Sagittaria pygmaea; derivative 5 g/a): 5 (Growth inhibition rate; 96 to 100%); Herbicidal effects Sagittaria pygmaea (Sagittaria pygmaea; derivative 10 g/a): 5 (Growth inhibition rate; 96 to 100%); Herbicidal effects Cyperus serotinus (Cyperus serotinus [10]; derivative 5 g/a): 5 (Growth inhibition rate; 96 to 100%); Herbicidal effects Cyperus serotinus (Cyperus serotinus [10]; derivative 10 g/a): 5 (Growth inhibition rate; 96 to 100%); Crop injury against transplanted rice ([11]; derivative 5 g/a): 0 (Growth-inhibition rate; 0 to 15%); Crop injury against transplanted rice ([11]; derivative 10 g/a): 0 (Growth-inhibition rate; 0 to 15%)
Oc1cc(Cl)nnc1Oc1cccc2c1CCC2 [Example 171]	5 (Growth inhibition rate; 91 to 100%)	5 (Growth inhibition rate; 91 to 100%)	0 (Growth inhibition rate; 0 to 10%)	0 (Growth inhibition rate; 0 to 10%)	3 (Growth inhibition rate; 51 to 70%)	4 (Growth inhibition rate; 71 to 90%)	5 (Growth inhibition rate; 91 to 100%)	5 (Growth inhibition rate; 91 to 100%)	5 (Growth inhibition rate; 91 to 100%)	5 (Growth inhibition rate; 91 to 100%)	5 (Growth inhibition rate; 91 to 100%)	5 (Growth inhibition rate; 91 to 100%)	2 (Growth inhibition rate; 36 to 55%)	3 (Growth inhibition rate; 56 to 75%)	5 (Growth inhibition rate; 96 to 100%)	5 (Growth inhibition rate; 96 to 100%)	2 (Growth inhibition rate; 36 to 55%)	3 (Growth inhibition rate; 56 to 75%)	5 (Growth inhibition rate; 96 to 100%)	5 (Growth inhibition rate; 96 to 100%)	Herbicidal effects Sagittaria pygmaea (Sagittaria pygmaea; derivative 5 g/a): 5 (Growth inhibition rate; 96 to 100%); Herbicidal effects Sagittaria pygmaea (Sagittaria pygmaea; derivative 10 g/a): 5 (Growth inhibition rate; 96 to 100%); Herbicidal effects Cyperus serotinus (Cyperus serotinus [10]; derivative 5 g/a): 5 (Growth inhibition rate; 96 to 100%); Herbicidal effects Cyperus serotinus (Cyperus serotinus [10]; derivative 10 g/a): 5 (Growth inhibition rate; 96 to 100%); Crop injury against transplanted rice ([11]; derivative 5 g/a): 0 (Growth-inhibition rate; 0 to 15%); Crop injury against transplanted rice ([11]; derivative 10 g/a): 0 (Growth-inhibition rate; 0 to 15%)
